This note sets out measurements from patent publication US8574563B2 (Bristol-Myers Squibb Company, priority 2006, dated 2013).

In the assay the test system is HCV 1b-377-neo replicon cells. In words: HCV replicon assay, HCV 1b-377-neo replicon cells (1b FRET). It counts as cell-based, Hepatitis C virus genotype 1b. The following applies: Hepatitis C virus, HCV 1b-377-neo replicon cells; HCV 1b genotype; read-out: EC50 range against HCV 1b (Table 2, Range). The method, boiled down: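 FRET-based replicon assay in HCV 1b-377-neo cells, including a comparison line carrying the NS5A Y2065H mutation that confers resistance to a reference compound.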
A general note: Replicon systems follow genome replication, usually without infectious particles.
By EC50 is commonly meant the concentration giving half of the maximal effect. `COC(=O)N[C@H](C(=O)N1CCC[C@H]1c1ncc(-c2ccc(-c3ccc(-c4cnc([C@@H]5CCCN5C(=O)CNCC(C)C)[nH]4)cc3)cc2)[nH]1)C(C)C` [LS23, methyl ((1S)-1-(((2S)-2-(5-(4′-(2-((2S)-1-(N-isobutylglycyl)-2-pyrrolidinyl)-1H-imidazol-5-yl)-4-biphenylyl)-1H-imidazol-2-yl)-1-pyrrolidinyl)carbonyl)-2-methylpropyl)carbamate]: the EC50 lay within 0.001 to 0.999 nM.

Consider `CCC(C)NCC(=O)N1CCC[C@H]1c1ncc(-c2ccc(-c3ccc(-c4cnc([C@@H]5CCCN5C(=O)[C@@H](NC(=O)OC)C(C)C)[nH]4)cc3)cc2)[nH]1` (stereo partly drawn) [LS24, methyl ((1S)-1-(((2S)-2-(5-(4′-(2-((2S)-1-(N-sec-butylglycyl)-2-pyrrolidinyl)-1H-imidazol-5-yl)-4-biphenylyl)-1H-imidazol-2-yl)-1-pyrrolidinyl)carbonyl)-2-methylpropyl)carbamate], for which the EC50 was 0.001 to 0.999 nM.

With `COC(=O)N[C@H](C(=O)N1CCC[C@H]1c1ncc(-c2ccc(-c3ccc(-c4cnc([C@@H]5CCCN5C(=O)CNC(C)C)[nH]4)cc3)cc2)[nH]1)C(C)C` [LS25, methyl ((1S)-1-(((2S)-2-(5-(4′-(2-((2S)-1-(N-isopropylglycyl)-2-pyrrolidinyl)-1H-imidazol-5-yl)-4-biphenylyl)-1H-imidazol-2-yl)-1-pyrrolidinyl)carbonyl)-2-methylpropyl)carbamate], the EC50 was in the range of 0.001 to 0.999 nM.

Turning to `COC(=O)N[C@H](C(=O)N1CCC[C@H]1c1ncc(-c2ccc(-c3ccc(-c4cnc([C@@H]5CCCN5C(=O)CN(C(C)C)C(C)C)[nH]4)cc3)cc2)[nH]1)C(C)C` [LS26, methyl ((1S)-1-(((2S)-2-(5-(4′-(2-((2S)-1-(N,N-diisopropylglycyl)-2-pyrrolidinyl)-1H-imidazol-5-yl)-4-biphenylyl)-1H-imidazol-2-yl)-1-pyrrolidinyl)carbonyl)-2-methylpropyl)carbamate], the EC50 lay within 0.001 to 0.999 nM.

As to `COC(=O)N[C@H](C(=O)N1CCC[C@H]1c1ncc(-c2ccc(-c3ccc(-c4cnc([C@]5(C)CCCN5C(=O)[C@@H](NC(=O)OC)C(C)C)[nH]4)cc3)cc2)[nH]1)C(C)C` [LS36, methyl ((1S)-1-(((2S)-2-(5-(4′-(2-((2S)-1-((2S)-2-((methoxycarbonyl)amino)-3-methylbutanoyl)-2-pyrrolidinyl)-1H-imidazol-5-yl)-4-biphenylyl)-1H-imidazol-2-yl)-2-methyl-1-pyrrolidinyl)carbonyl)-2-methylpropyl)carbamate], the EC50 was 0.001 to 0.999 nM.

As for `CC(C)[C@H](NC(=O)N(C)C)C(=O)N1CCC[C@H]1c1ncc(-c2ccc(-c3ccc(-c4cnc([C@@H]5CCCN5C(=O)[C@@H](NC(=O)N(C)C)C(C)C)[nH]4)cc3)cc2)[nH]1` [OL-1, 3-((1S)-1-(((2S)-2-(4-(4′-(2-((2S)-1-((2S)-2-((dimethylcarbamoyl)amino)-3-methylbutanoyl)-2-pyrrolidinyl)-1H-imidazol-4-yl)-4-biphenylyl)-1H-imidazol-2-yl)-1-pyrrolidinyl)carbonyl)-2-methylpropyl)-1,1-dimethylurea], the EC50 is 0.001 to 0.999 nM.

`C[C@H](NC(=O)N(C)C)C(=O)N1CCC[C@H]1c1ncc(-c2ccc(-c3ccc(-c4cnc([C@@H]5CCCN5C(=O)[C@H](C)NC(=O)N(C)C)[nH]4)cc3)cc2)[nH]1` [OL-2, 3-((1S)-2-((2S)-2-(4-(4′-(2-((2S)-1-(N-(dimethylcarbamoyl)-L-alanyl)-2-pyrrolidinyl)-1H-imidazol-4-yl)-4-biphenylyl)-1H-imidazol-2-yl)-1-pyrrolidinyl)-1-methyl-2-oxoethyl)-1,1-dimethylurea]: the half-maximal effective concentration (EC50) lay in the range of 0.001 to 0.999 nM.

On to `CC(C)[C@H](NC(=O)OCCF)C(=O)N1CCC[C@H]1c1ncc(-c2ccc(-c3ccc(-c4cnc([C@@H]5CCCN5C(=O)[C@@H](NC(=O)OCCF)C(C)C)[nH]4)cc3)cc2)[nH]1` [OL-3, 2-fluoroethyl ((1S)-1-(((2S)-2-(4-(4′-(2-((2S)-1-((2S)-2-(((2-fluoroethoxy)carbonyl)amino)-3-methylbutanoyl)-2-pyrrolidinyl)-1H-imidazol-4-yl)-4-biphenylyl)-1H-imidazol-2-yl)-1-pyrrolidinyl)carbonyl)-2-methylpropyl)carbamate], for which the EC50 lay in the range of 1 to 99 nM.

For the compound `CCC(CC)[C@H](NC(=O)OC)C(=O)N1CCC[C@H]1c1ncc(-c2ccc(-c3ccc(-c4cnc([C@@H]5CCCN5C(=O)[C@@H](NC(=O)OC)C(CC)CC)[nH]4)cc3)cc2)[nH]1` [OL-4, methyl ((1S)-2-ethyl-1-(((2S)-2-(4-(4′-(2-((2S)-1-((2S)-3-ethyl-2-((methoxycarbonyl)amino)pentanoyl)-2-pyrrolidinyl)-1H-imidazol-4-yl)-4-biphenylyl)-1H-imidazol-2-yl)-1-pyrrolidinyl)carbonyl)butyl)carbamate], the EC50 lay in the range of 0.001 to 0.999 nM.

As for `CC(C)[C@@H](C(=O)N1CCC[C@H]1c1ncc(-c2ccc(-c3ccc(-c4cnc([C@@H]5CCCN5C(=O)[C@H](C(C)C)N5CCCNC5=O)[nH]4)cc3)cc2)[nH]1)N1CCCNC1=O` [OL-5, 1,1′-(4,4′-biphenyldiylbis(1H-imidazole-4,2-diyl(2S)-2,1-pyrrolidinediyl((2S)-3-methyl-1-oxo-1,2-butanediyl)))ditetrahydro-2(1H)-pyrimidinone], the half-maximal effective concentration (EC50) was in the range of 0.001 to 0.999 nM.

`COC(=O)N[C@@H](CC(C)C)C(=O)N1CCC[C@H]1c1ncc(-c2ccc(-c3ccc(-c4cnc([C@@H]5CCCN5C(=O)[C@H](CC(C)C)NC(=O)OC)[nH]4)cc3)cc2)[nH]1` [OL-6, methyl ((1S)-1-(((2S)-2-(4-(4′-(2-((2S)-1-((2S)-2-((methoxycarbonyl)amino)-4-methylpentanoyl)-2-pyrrolidinyl)-1H-imidazol-4-yl)-4-biphenylyl)-1H-imidazol-2-yl)-1-pyrrolidinyl)carbonyl)-3-methylbutyl)carbamate]: the EC50 was 0.001 to 0.999 nM.

As for `COC(=O)N[C@H](C(=O)N1CC(F)(F)C[C@H]1c1ncc(-c2ccc(-c3ccc(-c4cnc([C@@H]5CC(F)(F)CN5C(=O)[C@@H](NC(=O)OC)C(C)C)[nH]4)cc3)cc2)[nH]1)C(C)C` [OL-7, methyl ((1S)-1-(((2S)-2-(4-(4′-(2-((2S)-4,4-difluoro-1-((2S)-2-((methoxycarbonyl)amino)-3-methylbutanoyl)-2-pyrrolidinyl)-1H-imidazol-4-yl)-4-biphenylyl)-1H-imidazol-2-yl)-4,4-difluoro-1-pyrrolidinyl)carbonyl)-2-methylpropyl)carbamate], the EC50 lay in the range of 0.001 to 0.999 nM.

Turning to `CN(C)[C@@H](C(=O)N1CC(F)(F)C[C@H]1c1ncc(-c2ccc(-c3ccc(-c4cnc([C@@H]5CC(F)(F)CN5C(=O)[C@@H](c5ccccc5)N(C)C)[nH]4)cc3)cc2)[nH]1)c1ccccc1` [OL-8, (1R,1′R)-2,2′-(4,4′-biphenyldiylbis(1H-imidazole-4,2-diyl((2S)-4,4-difluoro-2,1-pyrrolidinediyl)))bis(N,N-dimethyl-2-oxo-1-phenylethanamine)], the half-maximal effective concentration (EC50) lay within 0.001 to 0.999 nM.

With `CCN(CC)[C@@H](C(=O)N1CC(F)(F)C[C@H]1c1ncc(-c2ccc(-c3ccc(-c4cnc([C@@H]5CC(F)(F)CN5C(=O)[C@@H](c5ccccc5)N(CC)CC)[nH]4)cc3)cc2)[nH]1)c1ccccc1` [OL-9, (1R,1′R)-2,2′-(4,4′-biphenyldiylbis(1H-imidazole-4,2-diyl((2S)-4,4-difluoro-2,1-pyrrolidinediyl)))bis(N,N-diethyl-2-oxo-1-phenylethanamine)], the concentration for a half-maximal effect (EC50) is 0.001 to 0.999 nM.

Consider `COC(=O)N[C@H](C(=O)N1CC(F)(F)C[C@H]1c1ncc(-c2ccc(-c3ccc(-c4cnc([C@@H]5CC(F)(F)CN5C(=O)[C@@H](NC(=O)OC)[C@@H](C)OC)[nH]4)cc3)cc2)[nH]1)[C@@H](C)OC` [OL-10, methyl ((1S,2R)-1-(((2S)-2-(4-(4′-(2-((2S)-4,4-difluoro-1-(N-(methoxycarbonyl)-O-methyl-L-threonyl)-2-pyrrolidinyl)-1H-imidazol-4-yl)-4-biphenylyl)-1H-imidazol-2-yl)-4,4-difluoro-1-pyrrolidinyl)carbonyl)-2-methoxypropyl)carbamate], for which the half-maximal effective concentration (EC50) is 0.001 to 0.999 nM.

As for `COC(=O)N[C@@H](C)C(=O)N1CC(F)(F)C[C@H]1c1ncc(-c2ccc(-c3ccc(-c4cnc([C@@H]5CC(F)(F)CN5C(=O)[C@H](C)NC(=O)OC)[nH]4)cc3)cc2)[nH]1` [OL-11, methyl ((1S)-2-((2S)-2-(4-(4′-(2-((2S)-4,4-difluoro-1-(N-(methoxycarbonyl)-L-alanyl)-2-pyrrolidinyl)-1H-imidazol-4-yl)-4-biphenylyl)-1H-imidazol-2-yl)-4,4-difluoro-1-pyrrolidinyl)-1-methyl-2-oxoethyl)carbamate], the EC50 was 0.001 to 0.999 nM.

For the compound `COC(=O)N[C@H](C(=O)N1CCC[C@H]1c1ncc(-c2ccc(-c3ccc(-c4cnc([C@@H]5CC(F)(F)CN5C(=O)[C@@H](NC(=O)OC)C(C)C)[nH]4)cc3)cc2)[nH]1)C(C)C` [OL-12, methyl ((1S)-1-(((2S)-2-(4-(4′-(2-((2S)-4,4-difluoro-1-((2S)-2-((methoxycarbonyl)amino)-3-methylbutanoyl)-2-pyrrolidinyl)-1H-imidazol-4-yl)-4-biphenylyl)-1H-imidazol-2-yl)-1-pyrrolidinyl)carbonyl)-2-methylpropyl)carbamate], the EC50 was 0.001 to 0.999 nM.

On to `COC(=O)N[C@H](C(=O)N1CC[C@H](O)[C@H]1c1nc(-c2ccc(-c3ccc(-c4c[nH]c([C@@H]5CCCN5C(=O)[C@@H](NC(=O)OC)C(C)C)n4)cc3)cc2)c[nH]1)C(C)C` [OL-19, methyl ((1S)-1-(((2R,3S)-3-hydroxy-2-(4-(4′-(2-((2S)-1-((2S)-2-((methoxycarbonyl)amino)-3-methylbutanoyl)-2-pyrrolidinyl)-1H-imidazol-4-yl)-4-biphenylyl)-1H-imidazol-2-yl)-1-pyrrolidinyl)carbonyl)-2-methylpropyl)carbamate], for which the 50% effective concentration (EC50) lay in the range of 0.001 to 0.999 nM.

For `COC(=O)N[C@@H](C)C(=O)N1CC[C@H](O)[C@H]1c1ncc(-c2ccc(-c3ccc(-c4cnc([C@@H]5CCCN5C(=O)[C@H](C)NC(=O)OC)[nH]4)cc3)cc2)[nH]1` [OL-20, methyl ((1S)-2-((2S)-2-(4-(4′-(2-((2R,3S)-3-hydroxy-1-(N-(methoxycarbonyl)-L-alanyl)-2-pyrrolidinyl)-1H-imidazol-4-yl)-4-biphenylyl)-1H-imidazol-2-yl)-1-pyrrolidinyl)-1-methyl-2-oxoethyl)carbamate], the concentration giving a half-maximal response (EC50) was in the range of 1 to 99 nM.
